Where no end group is shown, it is not given here.
Legend:
[1] = system: human erythrocytes; conditions: cited from earlier work
Description: Ocellatin4 ([…]-NH(2)) is a cytolytic peptide obtained from skin secretion of the South American frog Leptodactylus ocellatus. The analogue of this peptide named as, Ocellatin4-analogue ([…]) has positive charge at its N-terminus (lysine residue), similarly to K^0-W^6-Hy-a1.

[2] = system: Galleria mellonella larvae; experiment: Toxicity in Galleria mellonella larvae; format: in vivo; conditions: for Median (%survival): over Experiments 1 and 2; for survival percentages of larvae: at 64 and 128 μM
Procedure: The peptides citrus–amp1 and citrus–amp2 were selected for toxicity assay in G. mellonella. Larvae with 0.15 to 0.20 g were randomly selected for the experiments and were kept without food in Petri plates at 37°C in the dark for 24 h prior to use. Each larva was injected with 10 μL of peptides at 64 and 128 μM into the last proleg using a Hamilton micro-syringe. […] The larvae were incubated at 37°C and survival was evaluated daily for 7 days. Group of 8–9 larvae was used to each concentration of peptides and 10 μL of PBS was injected in the control group. Two independent experiments were performed.

[3] = system: Methylobacterium sp.; format: cell-based; conditions: ND = higher than the concentrations evaluated
Description: (§1) Two important citrus pathogenic bacteria were addressed in our study: X.citri (isolate 306), the causal agent of citrus canker, and CaLas, causal agent of HLB. Since the latter cannot be cultivated in vitro, surrogates phylogenetically related to CaLas were used in the assays. The surrogates chosen were S. meliloti SEMIA 165 (= USDA 1002) and A. tumefaciens (GV3101/PMP90), provided by FEPAGRO (Fundação Estadual de Pesquisa Agropecuária) and by Dr. Janete Desidério, UNESP (Universidade Estadual Paulista, Jaboticabal, São Paulo, Brazil). The effect of the AMPs on Methylobacterium sp., an endophytic commonly found at citrus in Brazil and kindly provided by Dr. Wellington Luiz Araújo, Instituto de Ciências Biomédicas, Universidade de São Paulo, Brazil, was also assessed. Methylobacterium sp. and X.citri was cultured in NBY solid medium and then in NBY liquid medium according to Amaral et al. for 48 hours at 28°C and 180 rpm. S. meliloti and A. tumefaciens were grown in YM medium (Yeast Mannitol Medium) (0.5 g/L KH2PO4, 0.2 g/L MgSO4 7.H2O, 0.1g/L NaCl, 10 g/L mannitol, 0.5 g/L yeast extract, 9g/L agar, pH 6.8) and then in YM liquid medium for 48 hours at 28°C and 180 rpm. In addition to the in vitro assays, X.citri::GFP [35], obtained from Dr. Adrián A. Vojnov (Instituto de Ciencia y Tecnología Dr. Cesar Milstein, Fundación Pablo Cassará, Consejo Nacional de Investigaciones Científicas y Técnicas (CONICET), Buenos Aires / Argentina), was used for the in vivo assays.
(§2) Antimicrobial peptide activity was performed in vitro using a microliter plate assay (96 well cell culture cluster—Costar®3599). Fifty microliters of inoculum at 10^4 CFU/mL prepared in PBS buffer (Phosphate buffered saline) was mixed with 50 μL of the peptide diluted in distilled water filter sterilized (dH2O). The final concentration of peptide evaluated ranged from 1–64 μM, and hylin-a1 and PBS were used as positive and negative control for AMP, respectively. […] Three replicates were prepared for each concentration evaluated.
(§3) At the end of the growth incubation, minimum bactericidal concentration (MBC) for each organism was determined by serial dilution using the microdrop technique, as described elsewhere. The Petri dishes were maintained at 28°C for three days to obtain CFU/mL.

[4] = system: Sinorhizobium meliloti SEMIA 165; format: cell-based; conditions: ND = higher than the concentrations evaluated; for MIC S. meliloti: microplate, inoculum 10^4 CFU/mL in PBS, peptide 1–64 μM, 595 nm, three replicates; for MBC S. meliloti: serial dilution, microdrop technique, 28°C three days
Description: as §1, §2, §3

[5] = system: Xanthomonas citri subsp. citri (X.citri, isolate 306); format: cell-based; conditions: ND = higher than the concentrations evaluated
Description: as §1, §2, §3

[6] = system: U87 MG cells; experiment: Cytotoxicity in U87 MG cells (alamarBlue); format: cell-based, human; conditions: concentrations of 1–128 μM, 24 h
Procedure: U87 MG, a human Glioblastoma cell line frequently used as a model for cytotoxicity evaluation was adopted in our study for the peptides citrus–amp1 and citrus–amp2. Cells were plated in 96 wells plate (5x10^4 cells per well), incubated overnight and maintained in a humidified atmosphere at 37°C and 5% CO2. After the incubation period, cells were treated with peptides varying from 1μM to 128 μM and then incubated for 24h. Untreated and cells treated with DMSO (dimethyl sulfoxide) were used as positive and negative control for the viability of U87 MG cells. Six replicates were done by each concentration.
Cytotoxicity was performed using alamarBlue® cell viability reagent, a cell health indicator, through the reduction of […] of living cells. Viable cells convert Resazurin (blue) to resorufin, a compound that emits red fluorescent light. Alamar Blue medium was prepared by mixing medium with alamarBlue solution (Thermo Ficher Scientific) in a ratio of 10:1. After treatment with the peptides for 24 h, the medium was discarded, and Alamar Blue medium (100 μL) was transferred to a 96-well microplate. The microplates were incubated with Alamar Blue at 37°C for 4 h, and absorbance was measured using Epoch2 Microplate Reader (Biotek) in 570 nm. Cell viability was calculated using the ratio of the absorbance between treated and untreated cells and the data were expressed as percentages. […]

[7] = system: tobacco leaves; conditions: 24 hpi; leaves started to dry out 12 hpi; cited from earlier work
Procedure: The peptide Hylin-1 and PBS buffer were used as positive and negative controls of the phytotoxicity assay, respectively. At seven days post inoculation (7 dpi), visual evaluation was performed in detached leaves. […] Makovitzki et al. assessed the toxicity of peptide C14-KLLK in tobacco leaves.

[8] = 64 µM, Experiment 1, 7 days, n=8–9 larvae
[9] = 64 µM, Experiment 2, 7 days, n=8–9 larvae
[10] = 128 µM, Experiment 1, 7 days, n=8–9 larvae
[11] = 128 µM, Experiment 2, 7 days, n=8–9 larvae
[12] = 10 μL of 64 μM injected, 37°C, 7 days, mean±SD of two experiments, 8–9 larvae
[13] = 10 μL of 128 μM injected, 37°C, 7 days, mean±SD of two experiments, 8–9 larvae
[14] = microplate, inoculum 10^4 CFU/mL in PBS, peptide 1–64 μM, 595 nm, three replicates
[15] = serial dilution, microdrop technique, 28°C three days

GLLDFVTGVGKDIFAQLIKQI-NH(2) [ocellatin 4, cytolytic peptide from skin secretion of the frog Leptodactylus ocellatus]
activity on human erythrocytes at [1]: 14.3 mmol/L

IETFLKQLRSAANKIVGL [Citrus-amp1]
% survival [2, 8]: 88.9% | % survival [2, 9]: 88.9% | Median (%survival) ([2]; 64 µM): 88.9% | % survival [2, 10]: 100% | % survival [2, 11]: 88.9% | Median (%survival) ([2]; 128 µM): 94.5% | % survival [2, 12]: 88.89 ± 0% | % survival [2, 13]: 94.50 ± 7.85% | survival percentages of larvae [2]: > 87%

KIFGAIWPLALGALKNLIK [K^0-W^6-Hy-a1]
MIC Met sp. [3, 14]: 4 µM | MBC Met sp. [3, 15]: 8 µM | MIC S. meliloti [4]: 4 µM | MBC S. meliloti [4]: 62 µM | MIC X.ciri [5, 14]: 2 µM | MBC X.ciri [5, 15]: 2 µM

LESLASSAVRTANKARAKL [Citrus-amp2]
% survival [2, 8]: 100% | % survival [2, 9]: 75% | Median (%survival) ([2]; 64 µM): 87.5% | % survival [2, 10]: 100% | % survival [2, 11]: 87.5% | Median (%survival) ([2]; 128 µM): 93.8% | % survival [2, 12]: 87.50 ± 17.68% | % survival [2, 13]: 93.75 ± 8.84% | survival percentages of larvae [2]: > 87% | MIC S. meliloti [4]: 64 µM | MBC S. meliloti [4]: 64 µM | viability percentages of cells [6]: > 70%

mellittin
toxicity in tobacco leaves at the inoculation point [7]: necrosis
